According to the NIST ThermoML archive (doi:10.1021/je300776s):

Conditions: for mass density: Vibrating tube method; for vapor or sublimation pressure: Closed cell (Static) method; for viscosity: Capillary tube (Ostwald / Ubbelohde) method; for surface tension liquid-gas: Capillary rise

FC(F)(F)/C=C/Cl [(E)-1-chloro-3,3,3-trifluoroprop-1-ene]
Conditions	Critical temperature [K]	mass density [kg/m3]	vapor or sublimation pressure [kPa]
243.34 K, Liquid	–	1384.7	–
243.7 K, Liquid	–	1383.98	–
248.07 K, Liquid	–	1371.38	–
251.12 K, Liquid	–	1367.4	–
253.56 K, Liquid	–	1362.51	–
255.66 K, Liquid	–	1360.3	–
263.09 K, Liquid	–	–	29.85
263.36 K, Liquid	–	1341.34	–
271.16 K, Liquid	–	1323.65	–
272.95 K, Liquid	–	–	44.51
273.1 K, Liquid	–	–	47.57
273.17 K, Liquid	–	1319.65	–
282.95 K, Liquid	–	–	71.41
283.08 K, Liquid	–	–	72.74
283.26 K, Liquid	–	1296.48	–
290.16 K, Liquid	–	1280.22	–
291.98 K, Liquid	–	1276.01	–
293.05 K, Liquid	–	–	107.99
293.08 K, Liquid	–	–	106.52
293.21 K, Liquid	–	1273.37	–
302.85 K, Liquid	–	–	148.21
303.01 K, Liquid	–	–	152.1
312.25 K, Liquid	–	–	203.33
312.93 K, Liquid	–	–	210.08
321.85 K, Liquid	–	–	279.37
323 K, Liquid	–	–	282.13
332.93 K, Liquid	–	–	382.66
342.92 K, Liquid	–	–	502.28
352.84 K, Liquid	–	–	641.35
Liquid, Visual observation in an unstirred cell	438.75	–	–

Liquid
Conditions	viscosity [mPa·s]
270.24 K, 100 kPa	0.705
292.03 K, 150 kPa	0.506
314.25 K, 300 kPa	0.3851
336.37 K, 500 kPa	0.294
353.52 K, 800 kPa	0.2369
379.56 K, 1350 kPa	0.1763

Conditions	surface tension liquid-gas [mN/m]
273.15 K	16.48
298.15 K	12.68
323.15 K	9.01
